Here are results for two compounds from patent US8236794B2, “Treatment of mesothelioma” (Ed. Geistlich Soehne AG fuer Chemische Industrie, priority 2003, dated 2012).

Molecules are shown by their SMILES. Entries after “also recorded” stand apart in the source; their conditions may differ.

The subject of one series is malignant mesothelioma. In words: Therapy of mesothelioma with taurolidine: single-patient case, two treatment cycles, intravenous plus intrapleural. The series is classed as in vivo, human. From the text:
The following is a case involving treatment of an individual for two treatment cycles. Patient: Diagnosis: Malignant mesothelioma two yrs. ago (stage III according to IMIG stadiation) Prior treatments: Treated with CT with Cis-Platinum/Gemcitabine, Local recurrency with pleural effusion. Treated with taurolidine 2%, Two cycles of three weeks with taurolidine both intravenous and intrapleural administration I.V: 4 bottles daily for 5 days for three weeks (2 cycles) I.P: 1 bottle daily for 5 days for three weeks (2 cycles)

The test system of series [1] is human malignant glioma cell line LN-229. As to the kind of experiment: Cell viability and Fas-ligand mediated apoptosis in glioma cells. The series is classed as cell-based. The conditions noted are these: LN-229 cells; for Effect on destruction of cells by Fas-ligand: combined with Fas-ligand. The method, then: The present invention relates to the ability of methylol transfer agents, such as taurolidine, to induce cell toxicity, and to enhance Fas-ligand mediated apoptosis. Both taurolidine and its congener taurultam enhance the apoptotic effect of Fas-ligand in cancer cells at drug concentrations which per se show practically no effect on cell viability. For example, in the human malignant glioma cell line LN-229 cell viability was reduced directly following incubation with taurolidine or taurultam alone. […] Thus, the use of methylol transfer agents to induce apoptotic cell death provides a means for treating mesothelioma as in the present invention.

The conditions of series [2]: cited from earlier work.

As to `O=S1(=O)CCN(CN2CCS(=O)(=O)NC2)CN1` [taurolidine, Bis-(1,1-dioxoperhydro-1,2,4-thiadiazinyl-4)methane], the “Main side effects, I.P. (intrapleural) administration” value with malignant mesothelioma (I.P. 1 bottle taurolidine 2% daily for 5 days for three weeks (2 cycles)) is on record as “Local burning at the site of instillation; also recorded: Thoracic burning of significant grade”. Further, the “Main side effects, I.V. administration” value in the series on malignant mesothelioma (I.V. 4 bottles taurolidine 2% daily for 5 days for three weeks (2 cycles)) is “Mild local burning at the site of instillation; also recorded: Transient symptomatic hypthension”. Further, the “Side effects obliging discontinuance of the treatment” value in the series with malignant mesothelioma (I.V. and I.P. administration, 2 cycles) is “None”. Besides, in the series with malignant mesothelioma (same patient and regimen, preliminary response evaluation), the Clinical response entry is given as “Highly significant reduction of the dyspnea”. The “Patient's condition after treatment” value with malignant mesothelioma (two treatment cycles, I.V. and I.P.) was “marked improvement”. For the same compound, in series [1], the “Effect on destruction of cells by Fas-ligand” value is given as “enhanced the destruction of LN-229 cells by Fas-ligand” and the “Cell viability following incubation with compound alone” value is on record as “reduced”. For the same compound, the Water solubility entry in series [2] is “up to 2%”.
With `O=S1(=O)CCNCN1` [taurultam], in series [1], the “Effect on destruction of cells by Fas-ligand” value is “enhanced the destruction of LN-229 cells by Fas-ligand” and the “Cell viability following incubation with compound alone” value is reported as “reduced”.
